Laboratory results published in patent US20050276812A1, “Antibody-drug conjugates and methods” (Genentech, Inc., priority 2004, published 2005).

Tests used:
[1] = 5-day acute toxicity study in rats; format: in vivo, female Sprague-Dawley rats; conditions: free DM1, 160 μg/kg (Group 6)
Experimental: Antibody-drug conjugates and an ADC-minus control, “Vehicle”, were evaluated in an acute toxicity rat model. Toxicity of ADC was investigated by treatment of female Sprague-Dawley rats with the ADC and subsequent inspection and analysis of the effects on various organs. Based on gross observations (body weights), clinical pathology parameters (serum chemistry and hematology) and histopathology, the toxicity of ADC may be observed, characterized, and measured.
Body weight was measured daily. Clinical chemistry, serum enzymes and hematology analysis was conducted on days 3 and 5; concluding with complete necropsy with histopathological assessment.
Animals were injected on day 1, complete chemistry and hematology profiles were obtained at baseline, day 3 and day 5 and a complete necropsy was performed on day 5. Routine histology was performed on three random animals for each group for the following tissues: sternum, liver, kidney, thymus, spleen, large and small intestine.

[2] = tested on: SK-BR-3 and BT-474 breast cancer cells; experiment: in vitro cellular proliferation assay of free drug and drug-linker; format: cell-based
Source text: Pharmaceutical formulations of a therapeutic antibody-drug conjugate (ADC) may contain certain amounts of unreacted drug moiety (D), antibody-linker intermediate (Ab-L), and/or drug-linker intermediate (D-L), as a consequence of incomplete purification and separation of excess reagents, impurities, and by-products, in the process of making the ADC; or time/temperature hydrolysis or degradation upon storage of the bulk ADC or formulated ADC composition. […] Alternatively, or in addition to, it may contain a detectable amount of drug-linker intermediate DM1-SMCC. Alternatively, or in addition to, it may contain a detectable amount of the antibody, trastuzumab.
Efficacy of ADC were measured by a cell proliferation assay employing the following protocol (Promega Corp. Technical Bulletin TB288; Mendoza et al (2002) Cancer Res. 62:5485-5488): • 1. An aliquot of 100 μl of cell culture containing about 10^4 cells (SKBR-3, BT474, MCF7 or MDA-MB-468) in medium was deposited in each well of a 96-well, opaque-walled plate. • 2. Control wells were prepared containing medium and without cells. • 3. ADC was added to the experimental wells and incubated for 3-5 days. • 4. The plates were equilibrated to room temperature for approximately 30 minutes. • 5. A volume of CellTiter-Glo Reagent equal to the volume of cell culture medium present in each well was added. • 6. The contents were mixed for 2 minutes on an orbital shaker to induce cell lysis. • 7. The plate was incubated at room temperature for 10 minutes to stabilize the luminescence signal. • 8. Luminescence was recorded and reported in graphs as RLU=relative luminescence units.

| Structure (SMILES) | severity of toxicity [1] | IC50 [2] | times less potent in cell killing than free drug DM1 [2] |
| --- | --- | --- | --- |
| COc1cc2cc(c1Cl)N(C)C(=O)C[C@H](OC(=O)[C@H](C)N(C)C(=O)CCS)[C@]1(C)O[C@H]1[C@H](C)[C@@H]1C[C@@](O)(NC(=O)O1)[C@H](OC)/C=C/C=C(\C)C2 [DM1, N^2′-deacetyl-N^2′-(3-mercapto-1-oxopropyl)-maytansine] | less than that seen in animals of Group 2 | 0.0045 µM | – |
| COc1cc2cc(c1Cl)N(C)C(=O)C[C@H](OC(=O)[C@H](C)N(C)C(=O)CCSC1CC(=O)N(CC3CCC(C(=O)ON4C(=O)CCC4=O)CC3)C1=O)[C@]1(C)O[C@H]1[C@H](C)[C@@H]1C[C@@](O)(NC(=O)O1)[C@H](OC)/C=C/C=C(\C)C2 (stereo partly shown) [DM1-SMCC] | – | 0.05 µM | about 20 times |
